Measured values: paper PMC12257397, “Scaffold Hopping Strategy toward New 4‑Aminoquinazolines Active Against Extracellular and Intracellular Mycobacterium tuberculosis” (ACS Medicinal Chemistry Letters, 2025)
≈ marks a conversion by molar mass, not a printed value. Like-named read-outs stand apart in the source and are kept apart here.

Assays:
[1] = system: M. tuberculosis H37Rv (ATCC 27294); experiment: MIC by resazurin reduction microplate assay (REMA); format: cell-based; details: Mycobacterium tuberculosis, converted from μg/mL to μM
[2] = system: M. tuberculosis H37Rv-LP (ATCC 25618); experiment: microbe, parasite or virus in culture; format: cell-based; details: concentration inhibiting 90% of growth, 5 days, read-out: MIC parental wild-type strain H37Rv-LP
in vitro [3] = details: human
in vitro [4] = details: human; remark: listed apart in the source
in vitro [5] = details: human; remark: listed apart in the source
[6] = system: Mycobacterium smegmatis mc2155; format: cell-based
[7] = system: Mycobacterium abscessus 103R; experiment: Antimicrobial spectrum MIC, M. abscessus; format: cell-based
[8] = system: Mycobacterium avium 2285S (smooth); experiment: Antimicrobial spectrum MIC, M. avium smooth; format: cell-based
[9] = system: Mycobacterium avium 2285R (rough); experiment: Antimicrobial spectrum MIC, M. avium rough; format: cell-based
[10] = system: Staphylococcus aureus (ATCC 29213); experiment: Antimicrobial spectrum MIC, S. aureus; format: cell-based
Escherichia coli RFM 795 = experiment: Antimicrobial spectrum MIC, E. coli; format: cell-based; details: Escherichia coli RFM 795 (lptD mutation)
[11] = Mycobacterium tuberculosis, 120 h

Cc1nc(NCCc2ccccc2)c2ccccc2n1 [9a]
MIC [1]: 38 µM (≈ 10 µg/mL)

COc1ccc2nc(C)nc(NCCc3ccccc3)c2c1 [9b]
MIC [1]: 34.1 µM (≈ 10 µg/mL)

Cc1nc(NCCc2ccccc2)c2cc(Br)ccc2n1 [9c]
MIC [1]: 7.3 µM (≈ 2.5 µg/mL)

c1ccc(CCNc2ncnc3ccccc23)cc1 [9e]
MIC [1]: 80.2 µM (≈ 20 µg/mL)

COc1ccc(CCNc2nc(C)nc3ccccc23)cc1 [10a]
MIC [1]: 34.1 µM (≈ 10 µg/mL)

COc1ccc(CCNc2nc(C)nc3ccc(OC)cc23)cc1 [10b]
MIC [1]: 30.9 µM (≈ 9.99 µg/mL)

COc1ccc(CCNc2nc(C)nc3ccc(Br)cc23)cc1 [10c]
MIC [1]: 13.4 µM (≈ 4.99 µg/mL)

COc1ccc(CCNc2nc(C)nc3ccc(I)cc23)cc1 [10d]
MIC [1]: 1.5 µM (≈ 0.629 µg/mL)
MIC [2, 11]: 0.92 µM (≈ 0.386 µg/mL)
CC50 at 72 h (in vitro [3]; CC50 HepG2+Gal): 6.4 µM
CC50 at 72 h (in vitro [3]; CC50 HepG2+Glu): 10.8 µM

COc1ccc(CCNc2ncnc3ccccc23)cc1 [10e]
MIC [1]: 71.6 µM (≈ 20 µg/mL)

Cc1nc(NCCc2ccc(Cl)cc2)c2ccccc2n1 [11a]
MIC [1]: 16.8 µM (≈ 5 µg/mL)

COc1ccc2nc(C)nc(NCCc3ccc(Cl)cc3)c2c1 [11b]
MIC [1]: 30.5 µM (≈ 10 µg/mL)

Cc1nc(NCCc2ccc(Cl)cc2)c2cc(Br)ccc2n1 [11c]
MIC [1]: 13.3 µM (≈ 5.01 µg/mL)

Cc1nc(NCCc2ccc(Cl)cc2)c2cc(I)ccc2n1 [11d]
MIC [1]: 0.73 µM (≈ 0.309 µg/mL)
MIC [2, 11]: 0.84 µM (≈ 0.356 µg/mL)
CC50 at 72 h (in vitro [3]; CC50 HepG2+Gal): 3.3 µM
CC50 at 72 h (in vitro [3]; CC50 HepG2+Glu): 4.2 µM

Clc1ccc(CCNc2ncnc3ccccc23)cc1 [11e]
MIC [1]: > 35.2 µM

Cc1nc(NCC(c2ccccc2)c2ccccc2)c2ccccc2n1 [12a]
MIC [1]: 29.5 µM (≈ 10 µg/mL)

COc1ccc2nc(C)nc(NCC(c3ccccc3)c3ccccc3)c2c1 [12b]
MIC [1]: 27.1 µM (≈ 10 µg/mL)

Cc1nc(NCC(c2ccccc2)c2ccccc2)c2cc(Br)ccc2n1 [12c]
MIC [1]: > 23.9 µM

Cc1nc(NCC(c2ccccc2)c2ccccc2)c2cc(I)ccc2n1 [12d]
MIC [1]: > 21.5 µM

c1ccc(C(CNc2ncnc3ccccc23)c2ccccc2)cc1 [12e]
MIC [1]: > 30.7 µM

Cc1nc(NCCc2ccc(OC(F)(F)F)cc2)c2ccccc2n1 [13a]
MIC [1]: 7.2 µM (≈ 2.5 µg/mL)

COc1ccc2nc(C)nc(NCCc3ccc(OC(F)(F)F)cc3)c2c1 [13b]
MIC [1]: 13.3 µM (≈ 5.02 µg/mL)

Cc1nc(NCCc2ccc(OC(F)(F)F)cc2)c2cc(Br)ccc2n1 [13c]
MIC [1]: 5.9 µM (≈ 2.51 µg/mL)
MIC [2, 11]: 3.4 µM (≈ 1.45 µg/mL)
CC50 at 72 h (in vitro [4]): < 1 µM
CC50 at 72 h (in vitro [5]): < 1 µM
CC50 at 72 h (in vitro [3]; CC50 HepG2+Gal): 1 µM
CC50 at 72 h (in vitro [3]; CC50 HepG2+Glu): 1.5 µM

Cc1nc(NCCc2ccc(OC(F)(F)F)cc2)c2cc(I)ccc2n1 [13d]
MIC [1]: 5.3 µM (≈ 2.51 µg/mL)
MIC [2, 11]: 3.7 µM (≈ 1.75 µg/mL)
CC50 at 72 h (in vitro [4]): 7.4 µM
CC50 at 72 h (in vitro [5]): 7.3 µM
CC50 at 72 h (in vitro [3]; CC50 HepG2+Gal): 2.2 µM
CC50 at 72 h (in vitro [3]; CC50 HepG2+Glu): 3.4 µM

FC(F)(F)Oc1ccc(CCNc2ncnc3ccccc23)cc1 [13e]
MIC [1]: 60 µM (≈ 20 µg/mL)

Cc1nc(NCCc2ccc(S(N)(=O)=O)cc2)c2ccccc2n1 [14a]
MIC [1]: > 117 µM

COc1ccc2nc(C)nc(NCCc3ccc(S(N)(=O)=O)cc3)c2c1 [14b]
MIC [1]: > 107 µM

Cc1nc(NCCc2ccc(S(N)(=O)=O)cc2)c2cc(Br)ccc2n1 [14c]
MIC [1]: > 94.9 µM

Cc1nc(NCCc2ccc(S(N)(=O)=O)cc2)c2cc(I)ccc2n1 [14d]
MIC [1]: > 85.4 µM

NS(=O)(=O)c1ccc(CCNc2ncnc3ccccc23)cc1 [14e]
MIC [1]: > 122 µM

Cc1ccc(CCNc2nc(C)nc3ccccc23)cc1 [15a]
MIC [1]: 18 µM (≈ 4.99 µg/mL)

COc1ccc2nc(C)nc(NCCc3ccc(C)cc3)c2c1 [15b]
MIC [1]: 16.3 µM (≈ 5.01 µg/mL)

Cc1ccc(CCNc2nc(C)nc3ccc(Br)cc23)cc1 [15c]
MIC [1]: 7 µM (≈ 2.49 µg/mL)

Cc1ccc(CCNc2nc(C)nc3ccc(I)cc23)cc1 [15d]
MIC [1]: 3.1 µM (≈ 1.25 µg/mL)
MIC [2, 11]: 0.48 µM (≈ 0.194 µg/mL)
CC50 at 72 h (in vitro [4]): 10.2 µM
CC50 at 72 h (in vitro [5]): 10.6 µM
CC50 at 72 h (in vitro [3]; CC50 HepG2+Gal): 6.6 µM
CC50 at 72 h (in vitro [3]; CC50 HepG2+Glu): 11.4 µM

Cc1ccc(CCNc2ncnc3ccccc23)cc1 [15e]
MIC [1]: > 38 µM

CCc1ccc(CCNc2nc(C)nc3ccccc23)cc1 [16a]
MIC [1]: 17.2 µM (≈ 5.01 µg/mL)

CCc1ccc(CCNc2nc(C)nc3ccc(OC)cc23)cc1 [16b]
MIC [1]: 15.6 µM (≈ 5.01 µg/mL)

CCc1ccc(CCNc2nc(C)nc3ccc(Br)cc23)cc1 [16c]
MIC [1]: 6.8 µM (≈ 2.52 µg/mL)
MIC [2, 11]: 2 µM (≈ 0.741 µg/mL)
MIC [2]: 2.0 µM (≈ 0.741 µg/mL)
CC50 at 72 h (in vitro [3]; CC50 HepG2+Gal): 1.6 µM
CC50 at 72 h (in vitro [3]; CC50 HepG2+Glu): 4 µM

CCc1ccc(CCNc2nc(C)nc3ccc(I)cc23)cc1 [16d]
MIC [1]: 6 µM (≈ 2.5 µg/mL)
MIC [2, 11]: 1.9 µM (≈ 0.793 µg/mL)
CC50 at 72 h (in vitro [4]): 8.3 µM
CC50 at 72 h (in vitro [5]): 8.3 µM
CC50 at 72 h (in vitro [3]; CC50 HepG2+Gal): 5.3 µM
CC50 at 72 h (in vitro [3]; CC50 HepG2+Glu): 7.4 µM

CCc1ccc(CCNc2ncnc3ccccc23)cc1 [16e]
MIC [1]: 36 µM (≈ 9.99 µg/mL)

Cc1nc(NCCc2ccc3ccccc3c2)c2ccccc2n1 [17a]
MIC [1]: 8 µM (≈ 2.51 µg/mL)

COc1ccc2nc(C)nc(NCCc3ccc4ccccc4c3)c2c1 [17b]
MIC [1]: 7.3 µM (≈ 2.51 µg/mL)

Cc1nc(NCCc2ccc3ccccc3c2)c2cc(Br)ccc2n1 [17c]
MIC [1]: 3.2 µM (≈ 1.26 µg/mL)
MIC [2, 11]: 2.5 µM (≈ 0.981 µg/mL)
CC50 at 72 h (in vitro [4]): < 1 µM
CC50 at 72 h (in vitro [5]): < 1 µM
CC50 at 72 h (in vitro [3]; CC50 HepG2+Gal): 1.8 µM
CC50 at 72 h (in vitro [3]; CC50 HepG2+Glu): 4.6 µM

Cc1nc(NCCc2ccc3ccccc3c2)c2cc(I)ccc2n1 [17d]
MIC [1]: 1.4 µM (≈ 0.615 µg/mL)
MIC [2, 11]: 1.4 µM (≈ 0.615 µg/mL)
CC50 at 72 h (in vitro [3]; CC50 HepG2+Gal): 5.2 µM
CC50 at 72 h (in vitro [3]; CC50 HepG2+Glu): 7.1 µM

c1ccc2cc(CCNc3ncnc4ccccc34)ccc2c1 [17e]
MIC [1]: > 16.7 µM

Cc1nc(NCCCc2ccccc2)c2ccccc2n1 [18a]
MIC [1]: 4.5 µM (≈ 1.25 µg/mL)
MIC [2, 11]: 1.6 µM (≈ 0.444 µg/mL)
MIC [2]: 1.6 µM (≈ 0.444 µg/mL)
CC50 at 72 h (in vitro [3]; CC50 HepG2+Gal): 2.6 µM
CC50 at 72 h (in vitro [3]; CC50 HepG2+Glu): 7.7 µM

c1ccc(CCCNc2ncnc3ccccc23)cc1 [18e]
MIC [1]: 19 µM (≈ 5 µg/mL)
MIC [2, 11]: 24 µM (≈ 6.32 µg/mL)
CC50 at 72 h (in vitro [4]): < 1 µM
CC50 at 72 h (in vitro [5]): < 1 µM
CC50 at 72 h (in vitro [3]; CC50 HepG2+Gal): 2.5 µM
CC50 at 72 h (in vitro [3]; CC50 HepG2+Glu): 10.9 µM

NNC(=O)c1ccncc1 [19 (INH), isoniazid, reference compound]
MIC [1]: 2.3 µM (≈ 0.315 µg/mL)

CO[C@H]1/C=C/O[C@@]2(C)Oc3c(C)c(O)c4c(O)c(c(/C=N/N5CCN(C)CC5)c(O)c4c3C2=O)NC(=O)/C(C)=C\C=C\[C@H](C)[C@H](O)[C@@H](C)[C@@H](O)[C@@H](C)[C@H](OC(C)=O)[C@@H]1C [20 (RIF), rifampicin, reference compound]
MIC [2, 11]: 0.03 µM (≈ 0.0247 µg/mL)
CIM mc2155 [6]: 48.6 µM

CN[C@@H]1C[C@H]2O[C@@](C)([C@@H]1OC)n1c3ccccc3c3c4c(c5c6ccccc6n2c5c31)C(=O)NC4 [21 (STA), staurosporine, reference compound]
CC50 (in vitro [3]; CC50 HepG2+Gal): 0.04 µM
CC50 (in vitro [3]; CC50 HepG2+Glu): 0.03 µM

CC[C@H]1OC(=O)[C@H](C)[C@@H](O[C@H]2C[C@@](C)(OC)[C@@H](O)[C@H](C)O2)[C@H](C)[C@@H](O[C@@H]2O[C@H](C)C[C@H](N(C)C)[C@H]2O)[C@](C)(OC)C[C@@H](C)C(=O)[C@H](C)[C@@H](O)[C@]1(C)O [25 (CLA), Clarithromycin, reference compound]
CIM 103R [7]: 0.5 µM
CIM 2285S [8]: 0.4 µM
CIM 2285R [9]: 1.4 µM

CN[C@H](CC(C)C)C(=O)N[C@H]1C(=O)N[C@@H](CC(N)=O)C(=O)N[C@H]2C(=O)N[C@H]3C(=O)N[C@H](C(=O)N[C@H](C(=O)O)c4cc(O)cc(O)c4-c4cc3ccc4O)[C@H](O)c3ccc(c(Cl)c3)Oc3cc2cc(c3O[C@@H]2O[C@H](CO)[C@@H](O)[C@H](O)[C@H]2O[C@H]2C[C@](C)(N)[C@H](O)[C@H](C)O2)Oc2ccc(cc2Cl)[C@H]1O [26 (VAN), Vancomycin, reference compound]
CIM 29213 [10]: 2.9 µM

CC1(C)S[C@@H]2[C@H](NC(=O)[C@H](N)c3ccccc3)C(=O)N2[C@H]1C(=O)O [27 (AMP), Ampicillin, reference compound]
CIM RFM 795 (Escherichia coli RFM 795): 12.0 µM
